What was measured:
genotype 2a HCV = experiment: HCV release assay in Huh7-GL cells (HCV RNA copy number and titer in medium, intracellular HCV RNA); type: cell-based, hepatitis C virus; details: for cellular release of virus (HCV RNA copy numbers and titers in the media): Huh7-GL cells, 1 nM, 10 nM, 100 nM and 500 nM, 16 hr then 4 hours in serum-free medium
Protocol: (§1) Huh7-GL cells were incubated in the absence or presence of the MTP inhibitor […]. Following incubation in serum-free medium, culture medium was harvested and the amount of HCV RNA, HCV titer, and apoB in the medium was measured.
Huh7-GL cells are cultured as described in Example 2. On day 1, the cells are treated with 1 nM, 10 nM, 100 nM, and 500 nM of the following MTP inhibitors: BMS-201038 (positive control), BMS-200150, BMS-212122, BMS-197636, JTT-130, Implitapide, mitratapide, and CP-346086. 16 hr later on day 2, cells are switched to serum-free medium in the absence or presence of the same amount of the MTP inhibitor.

[1] = previous clinical trials; cited from earlier work
HCV = experiment: Randomized, double-blind, placebo-controlled trial in patients with chronic HCV infection; details: 0.15 mg per kilogram twice daily, 12-week course
Protocol: Patients are recruited and are eligible for enrollment if they are positive for HCV RNA on serologic testing after at least 3 months of interferon therapy. Patients who can not tolerate interferon because of severe side effects, such as fatigue, neuropsychiatric disturbances, or thrombocytopenia, are also included.
Physicians and patients are blinded to treatment assignments. Patients are evaluated every 3 weeks for compliance, which is assessed by pill count, and for the development of adverse reactions. […] At each evaluation visit, a complete blood count is done and serum levels of electrolytes, blood urea nitrogen, creatinine, aspartate aminotransferase, alanine aminotransferase, albumin, and total bilirubin are measured. Titers of serum HCV RNA are assessed before enrollment, at each evaluation visit, and 6 weeks after the final dose by using a […] multicycle reverse transcription polymerase chain reaction method. Titers are calculated up to 5 million copies/mL; if a titer is greater than 5 million copies/mL, it is simply reported as such and the exact value is not given.

apoB = apoB mRNA and apoB secretion in Huh7-GL cells; type: cell-based, human; details: Huh7-GL cells incubated with MTP inhibitor, serum-free medium
Protocol: We transfected Huh7-GL cells, a line of Huh7 cells that contain a chromosomally integrated genotype 2a HCV cDNA and constitutively produce infectious virus (Cai et al., 2005), with a duplex siRNA targeting apoB or GFP as a control. Following incubation in serum-free medium, culture medium was harvested and the amount of apoB and HCV in the medium was analyzed. […] In control cells transfected with the GFP siRNA, the HCV copy number and titer increased by more than 10 fold during the period of 4-hr incubation. In cells receiving the apoB siRNA, this increase was reduced by about 50% as assayed by viral copy number, and 70% as assayed by the viral titer.
as §1

[2] = Huh7-GL cells incubated with MTP inhibitor vs absence of inhibitor

Compound	cellular release of virus (HCV RNA copy numbers and titers in the media) (genotype 2a HCV)	also measured
CC[C@@H](C)n1ncn(-c2ccc(N3CCN(c4ccc(OC[C@@H]5CO[C@@](CSc6nncn6C)(c6ccc(Cl)cc6)O5)cc4)CC3)cc2)c1=O [mitratapide]	decreases in cellular release of virus	–
O=C1c2ccccc2CN1C1CCN(CCC(c2ccccc2)c2ccccc2)CC1 [BMS-200150]	decreases in cellular release of virus	–
CCCNC(=O)C1(CCCCN2CCC(N3Cc4ccccc4C3=O)CC2)c2ccccc2-c2ccccc21 [BMS-197636]	decreases in cellular release of virus	–
Cc1ccc2c(nc(C)n2CCCCC2(C(=O)NCC(F)(F)F)c3ccccc3-c3ccccc32)c1NC(=O)c1ccccc1-c1ccc(C(F)(F)F)cc1 [BMS-212122]	decreases in cellular release of virus	–
O=C(Nc1ccc2c(c1)CCN(Cc1ncn[nH]1)C2)c1ccccc1-c1ccc(C(F)(F)F)cc1 [CP-346086]	decreases in cellular release of virus	–
implitapide	decreases in cellular release of virus	–
CCOC(=O)C(COC(=O)Cc1ccc(NC(=O)c2ccccc2-c2ccc(C(F)(F)F)cc2)c(C(=O)N(C)C)c1)(C(=O)OCC)c1ccccc1 [JTT-130]	decreases in cellular release of virus	–
O=C(NC1CCN(CCCCC2(C(=O)NCC(F)(F)F)c3ccccc3-c3ccccc32)CC1)c1ccccc1-c1ccc(C(F)(F)F)cc1 [BMS-201038]	decreases in cellular release of virus	tolerability [1]: high tolerability; intracellular HCV RNA (genotype 2a HCV; Huh7-GL cells in the absence or presence of the MTP inhibitor): remained the same; reduction of the amount of HCV RNA in the medium (genotype 2a HCV; [2]): about 80%; reduction of viral titer in the medium (genotype 2a HCV; [2]): about 80%; serum viremia (viral load, aminotransferase levels) (HCV): decrease in serum viremia; secretion of apoB (apoB): blocked
